Where two headings read alike, the source gives them in different places.
Tests used:
[1] = tested on: HT1080 xenografted mice (IDH1R132C); assay: 2-HG production inhibitory activity using HT1080 xenografted mice; format: in vivo, mouse; conditions: for response vs control in vivo at 75 mg/kg: Mus musculus, HT-1080, po, 6 h, read-out: Test Example 5 Ratio (%)
Protocol: HT1080 xenografted mice having successfully engrafted tumors were given by oral gavage each compound at 75 mg/kg a total of three times twice a day. The compound was suspended in a vehicle solution at 7.5 mg/mL using a homogenizer. Then, the suspension was stored at −20° C., thawed immediately before the administration, and given to mice. A negative control group for the test was given a vehicle by oral gavage. The body weights of the mice were measured using an automatic balance for small animals. The dosing solution was administered at a dose of 10 mL/kg body weight.
6 hours after the final administration, each mouse was euthanized with carbon dioxide. A portion of a tumor was collected, and its weight was measured using an electronic balance. Then, the tumor was frozen on dry ice. To the frozen tumor, methanol was added in an amount of 14 times the tumor weight. The resulting tumor was homogenized with Beads shocker (Yasui Kikai Corp.) and then incubated for 15 minutes in a freezer at −20° C. After centrifugation at 15000 rpm at 4° C. for 15 minutes using a high-speed refrigerated microcentrifuge, 250 μL of methanol and 400 μL of ultrapure water were added to 150 μL of the obtained supernatant. The prepared samples were subjected to 2-HG measurement.

IDH1R132C = IDH1R132C (Homo sapiens (Human), UniProt O75874, R132C); assay: Inhibitory activity against IDH1R132C enzyme (NADPH detection, WST-8); format: biochemical; conditions: 10 nM, residual NADPH detected with WST-8, read-out: Test Example 1 IDH1 R132C IC50
IDH1R132C, sequence (O75874 whole entry R132C): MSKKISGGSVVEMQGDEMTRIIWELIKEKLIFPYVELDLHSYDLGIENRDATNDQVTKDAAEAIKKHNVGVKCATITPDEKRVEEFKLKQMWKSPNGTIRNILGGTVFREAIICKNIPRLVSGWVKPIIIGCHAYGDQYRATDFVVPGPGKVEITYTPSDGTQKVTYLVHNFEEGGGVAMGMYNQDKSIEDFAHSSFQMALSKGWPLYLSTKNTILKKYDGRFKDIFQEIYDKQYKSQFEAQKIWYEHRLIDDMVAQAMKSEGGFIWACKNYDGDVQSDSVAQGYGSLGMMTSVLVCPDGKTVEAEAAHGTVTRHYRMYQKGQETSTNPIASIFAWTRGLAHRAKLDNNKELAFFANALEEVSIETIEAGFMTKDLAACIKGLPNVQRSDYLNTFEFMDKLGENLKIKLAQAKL

[2] = tested on: HT-1080 cells expressing IDH1R132C; assay: 2-HG production inhibitory activity using HT1080 cell; format: cell-based, human
Protocol: Then, 100 μL of growth medium B was added to each well, further 25 μL of a solution of each compound diluted to a predetermined concentration with growth medium B was added to each well, and the cells were incubated at 37° C. for 2 days under 5% CO2. […] Then, 150 μL of ultrapure water was further added to each well, and the mixture was stirred by pipetting and stored at −20° C.
The preserved solutions were thawed at room temperature.

[3] = 2-HG production, HT1080 xenografted mice
[4] = Homo sapiens, HT-1080, 2-HG production, HT1080 cells, read-out: Test Example 3 IC50

SMILES	response vs control in vivo at 75 mg/kg [1, 3]	IC50 (IDH1R132C)	IC50 [2, 4]	response vs control in vivo at 75 mg/kg [1]	IC50 ([2]; Homo sapiens, HT-1080, read-out: Test Example 3 IC50 (nM))	Test Example 5 Ratio (%) [1, 3]	IC50 ([2]; 2-HG production, HT1080 cells, read-out: Test Example 3 IC50)
Cc1cn(C(=O)c2c(-c3c(Cl)cc(Cl)cc3Cl)noc2C2(C)CCC2)c2cccc(/C=C/C(=O)O)c12 [Example 10, (2E)-3-(3-Methyl-1-{[5-(1-methylcyclobutyl)-3-(2,4,6-trichlorophenyl)-1,2-oxazol-4-yl]carbonyl}-1H-indol-4-yl)prop-2-enoic acid]	27%	179 nM	50 nM	–	–	–	–
COC1(c2onc(-c3c(Cl)cc(Cl)cc3Cl)c2C(=O)n2cc3c4c(cccc42)/C(=C/C(=O)O)CC3)CCC1 [Example 12, (2E)-[1-{[5-(1-Methoxycyclobutyl)-3-(2,4,6-trichlorophenyl)-1,2-oxazol-4-yl]carbonyl}-3,4-dihydrobenzo[cd]indol-5(1H)-ylidene]ethanoic acid]	7%	144 nM	24 nM	–	–	–	–
CC(C)(F)c1onc(-c2c(Cl)cc(Cl)cc2Cl)c1C(=O)n1cc2c3c(cccc31)/C(=C/C(=O)O)CC2 [Example 13, (2E)-[1-{[5-(2-Fluoropropan-2-yl)-3-(2,4,6-trichlorophenyl)-1,2-oxazol-4-yl]carbonyl}-3,4-dihydrobenzop[cd]indol-5(1H)-ylidene]ethanoic acid]	28%	148 nM	51 nM	–	–	–	–
CC(C)(F)c1onc(-c2c(F)cc(Cl)cc2Cl)c1C(=O)n1cc2c3c(cccc31)/C(=C/C(=O)O)CC2 [Example 16, (2E)-[1-{[3-(2,4-Dichloro-6-fluorophenyl)-5-(2-fluoropropan-2-yl)-1,2-oxazol-4-yl]carbonyl}-3,4-dihydrobenzo[cd]indol-5(1H)-ylidene]ethanoic acid]	32%	107 nM	89 nM	–	–	–	–
CC(C)(F)c1onc(-c2c(Cl)cc(Cl)cc2Cl)c1C(=O)n1ccc2c3c(ccc21)CCC(C(=O)O)C3 (stereo not drawn) [Example 18, 3-{[5-(2-Fluoropropan-2-yl)-3-(2,4,6-trichlorophenyl)-1,2-oxazol-4-yl]carbonyl}-6,7,8,9-tetrahydro-3H-Benzo[e]indole-8-carboxylic acid]	56%	162 nM	136 nM	–	–	–	–
CC1(c2onc(-c3c(Cl)cc(Cl)cc3Cl)c2C(=O)n2cc3c4c(cccc42)/C(=C/C(=O)O)CC3)CC(F)(F)C1 [Example 19]	79%	169 nM	64 nM	–	–	–	–
Cc1cn(C(=O)c2c(-c3c(Cl)cc(Cl)cc3Cl)noc2C(C)(C)F)c2cccc(/C=C/C(=O)O)c12 [Example 21, (2E)-3-(1-{[5-(2-Fluoropropan-2-yl)-3-(2,4,6-trichlorophenyl)-1,2-oxazol-4-yl]carbonyl}-3-methyl-1H-indol-4-yl)prop-2-enoic acid]	–	95 nM	–	14%	56 nM	–	–
CC(C)(C)c1onc(-c2c(Cl)cc(Cl)cc2Cl)c1C(=O)n1ccc2c(/C=C/C(=O)O)cccc21 [Example 22, (2E)-3-(1-{[5-(tert-Butyl)-3-(2,4,6-trichlorophenyl)-1,2-oxazol-4-yl]carbonyl}-1H-indol-4-yl)prop-2-enoic acid]	13%	189 nM	109 nM	–	–	–	–
Cc1cn(C(=O)c2c(-c3c(Cl)cc(Cl)cc3Cl)noc2C(C)C)c2cccc(/C=C/C(=O)O)c12 [Example 29, (2E)-3-(1-{[5-(Propan-2-yl)-3-(2,4,6-trichlorophenyl)-1,2-oxazol-4-yl]carbonyl}-3-methyl-1H-indol-4-yl)prop-2-enoic acid]	39%	102 nM	94 nM	–	–	–	–
Cc1cn(C(=O)c2c(-c3c(Cl)cc(Cl)cc3Cl)noc2C(C)(C)C)c2cccc(/C=C/C(=O)O)c12 [Example 33, (2E)-3-(1-{[5-(tert-Butyl)-3-(2,4,6-trichlorophenyl)-1,2-oxazol-4-yl]carbonyl}-3-methyl-1H-indol-4-yl)prop-2-enoic acid]	15%	193 nM	43 nM	–	–	–	–
CC(C)(C)c1noc(-c2c(Cl)cc(Cl)cc2Cl)c1C(=O)n1ccc2c(/C=C/C(=O)O)cccc21 [Example 34, (2E)-3-(1-{[3-(tert-Butyl)-5-(2,4,6-trichlorophenyl)-1,2-oxazol-4-yl]carbonyl}-1H-indol-4-yl)prop-2-enoic acid]	55%	364 nM	209 nM	–	–	–	–
CC(C)(C)c1onc(-c2c(F)cc(Cl)cc2Cl)c1C(=O)n1ccc2c(/C=C/C(=O)O)cccc21 [Example 35, (2E)-3-(1-{[5-(tert-Butyl)-3-(2,4-dichloro-6-fluorophenyl)-1,2-oxazol-4-yl]carbonyl}-1H-indol-4-yl)prop-2-enoic acid]	64%	161 nM	244 nM	–	–	–	–
CC(C)(F)c1onc(-c2c(Cl)cc(Cl)cc2Cl)c1C(=O)n1ccc2c(/C=C/C(=O)O)cccc21 [Example 36, (2E)-3-(1-{[5-(2-Fluoropropan-2-yl)-3-(2,4,6-trichlorophenyl)-1,2-oxazol-4-yl]carbonyl}-1H-indol-4-yl)prop-2-enoic acid]	43%	109 nM	170 nM	–	–	–	–
CC1(c2onc(-c3c(Cl)cc(Cl)cc3Cl)c2C(=O)n2ccc3c(/C=C/C(=O)O)cccc32)CC1 [Example 37, (2E)-3-(1-{[5-(1-Methylcyclopropyl)-3-(2,4,6-trichlorophenyl)-1,2-oxazol-4-yl]carbonyl}-1H-indol-4-yl)prop-2-enoic acid]	35%	117 nM	149 nM	–	–	–	–
Cc1cc(Cl)c(-c2noc(C(C)(C)C)c2C(=O)n2ccc3c(/C=C/C(=O)O)cccc32)c(Cl)c1 [Example 38, (2E)-3-(1-{[5-(tert-Butyl)-3-(2,6-dichloro-4-methylphenyl)-1,2-oxazol-4-yl]carbonyl}-1H-indol-4-yl)prop-2-enoic acid]	61%	234 nM	200 nM	–	–	–	–
CC(C)(C)c1onc(-c2c(Cl)cc(Cl)cc2Cl)c1C(=O)n1cc(F)c2c(/C=C/C(=O)O)cccc21 [Example 40, (2E)-3-(1-{[5-(tert-Butyl)-3-(2,4,6-trichlorophenyl)-1,2-oxazol-4-yl]carbonyl}-3-fluoro-1H-indol-4-yl)prop-2-enoic acid]	18%	159 nM	57 nM	–	–	–	–
COCC(C)(C)c1onc(-c2c(Cl)cc(Cl)cc2Cl)c1C(=O)n1ccc2c(/C=C/C(=O)O)cccc21 [Example 42, (2E)-3-(1-{[5-(1-Methoxy-2-methylpropan-2-yl)-3-(2,4,6-trichlorophenyl)-1,2-oxazol-4-yl]carbonyl}-1H-indol-4-yl)prop-2-enoic acid]	84%	217 nM	178 nM	–	–	–	–
Cc1cn(C(=O)c2c(-c3c(Cl)cc(Cl)cc3Cl)noc2C2(C)CC2)c2cccc(/C=C/C(=O)O)c12 [Example 43, (2E)-3-(3-Methyl-1-{[5-(1-methylcyclopropyl)-3-(2,4,6-trichlorophenyl)-1,2-oxazol-4-yl]carbonyl}-1H-indol-4-yl)prop-2-enoic acid]	54%	139 nM	63 nM	–	–	–	–
COC1(c2onc(-c3c(Cl)cc(Cl)cc3Cl)c2C(=O)n2ccc3c(/C=C/C(=O)O)cccc32)CC1 [Example 44, (2E)-3-(1-{[5-(1-Methoxycyclopropyl)-3-(2,4,6-trichlorophenyl)-1,2-oxazol-4-yl]carbonyl}-1H-indol-4-yl)prop-2-enoic acid]	72%	189 nM	194 nM	–	–	–	–
CC(C)(F)c1onc(-c2c(F)cc(Cl)cc2Cl)c1C(=O)n1ccc2c(/C=C/C(=O)O)cccc21 [Example 46, (2E)-3-(1-{[3-(2,4-Dichloro-6-fluorophenyl)-5-(2-fluoropropan-2-yl)-1,2-oxazol-4-yl]carbonyl}-1H-indol-4-yl)prop-2-enoic acid]	69%	197 nM	459 nM	–	–	–	–
Cc1cn(C(=O)c2c(-c3c(F)cc(Cl)cc3Cl)noc2C(C)(C)F)c2cccc(/C=C/C(=O)O)c12 [Example 47, (2E)-3-(1-{[3-(2,4-Dichloro-6-fluorophenyl)-5-(2-fluoropropan-2-yl)-1,2-oxazol-4-yl]carbonyl}-3-methyl-1H-indol-4-yl)prop-2-enoic acid]	17%	98 nM	62 nM	–	–	–	–
CC(C)(C)c1onc(-c2c(Cl)cc(Cl)cc2Cl)c1C(=O)n1ccc2c(/C=C/C(=O)O)ccc(F)c21 [Example 48]	–	193 nM	–	–	–	72%	115 nM

Reference: US10040791B2, “Isoxazole derivative as mutant isocitrate dehydrogenase 1 inhibitor” (Daiichi Sankyo Company, Limited, priority 2014, dated 2018)
